Test results reported in patent publication US12145944B2, “Imidazopyrimidines as EED inhibitors and the use thereof” (THE REGENTS OF THE UNIVERSITY OF MICHIGAN, priority 2019, dated 2024).
Read-outs that look alike come from different tables or passages of the source.

Key:
[1] = tested on: KARPAS422 human B cell lymphoma cell; experiment: Cell proliferation, KARPAS422, 7 day treatment (WST-8); assay type: cell-based; details: Homo sapiens, KARPAS-422, 168 h
How it was run: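 KARPAS422 cells seeded at 2 000-3 000 cells/well and exposed to serially diluted compounds for 7 days at 37 °C, 5% CO2. Growth measured by WST-8 (1-4 h, absorbance 450 nm). Readings normalized to DMSO-treated cells; IC50 from nonlinear regression.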

[2] = target: T1, EED (1-441)-His protein (Homo sapiens, UniProt O75530); experiment: EED-H3K27Me3 peptide competition binding assay by AlphaScreen; details: EED Alpha screen binding assay; read-out: Alpha screen
T1 construct: 20 nM EED (1-441)-His protein
T1 sequence (O75530 whole entry): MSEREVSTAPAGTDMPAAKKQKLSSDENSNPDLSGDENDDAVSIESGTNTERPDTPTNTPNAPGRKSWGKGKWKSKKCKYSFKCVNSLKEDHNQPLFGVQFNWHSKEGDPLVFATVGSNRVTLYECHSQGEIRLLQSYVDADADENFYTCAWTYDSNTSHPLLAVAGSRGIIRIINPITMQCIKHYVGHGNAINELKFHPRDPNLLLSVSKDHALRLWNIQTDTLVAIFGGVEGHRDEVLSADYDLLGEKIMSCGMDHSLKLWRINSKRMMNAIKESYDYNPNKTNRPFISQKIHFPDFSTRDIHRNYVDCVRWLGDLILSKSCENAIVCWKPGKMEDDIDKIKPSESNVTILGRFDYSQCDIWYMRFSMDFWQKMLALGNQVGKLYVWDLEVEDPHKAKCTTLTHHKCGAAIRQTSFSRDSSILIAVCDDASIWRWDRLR
Experimental: “N/A” stands for “not assessed”.
EED-H3K27Me3 peptide competition binding assay by AlphaScreen (α-screen)
2.5 μl of solutions containing 20 nM biotin-H3K27Me3 (19-33) peptide in the buffer (25 mM HEPES, pH 8, 0.02% Tween-20, 0.5% BSA) were added to the wells and then incubated with compound for 30 min. […] Then 10 μl of the detection beads mix was added to the plate and incubated in the dark at RT for 1 h. The final concentration of donor and acceptor beads was 10 μg/ml for each. […] The data were then fit to a dose response equation to get the IC50 values.

[3] = read-out: Karpas Cell line (nM)
[4] = anti-proliferative IC50, Karpas 422 cell line, 7 day treatment, read-out: Karpas Cell line

Structure (SMILES)	IC50 [1, 3] [nM]	IC50 [2] [nM]	IC50 [1, 4] [nM]
Cc1nc(C(F)(F)F)ccc1-c1cnc(NCc2c(F)ccc3c2CCO3)n2cnc(S(C)(=O)=O)c12 [compound 109, N-((5-fluoro-2,3-dihydrobenzofuran-4-yl)methyl)-8-(2-methyl-6-(trifluoromethyl)pyridin-3-yl)-1-(methylsulfonyl)imidazo[1,5-c]pyrimidin-5-amine]	10.9	0.53	
Cc1cc(S(C)(=O)=O)ccc1-c1cnc(NCc2c(F)ccc3c2CCO3)n2cnc(S(C)(=O)=O)c12 [compound 110, N-((5-fluoro-2,3-dihydrobenzofuran-4-yl)methyl)-8-(2-methyl-4-(methylsulfonyl)phenyl)-1-(methylsulfonyl)imidazo[1,5-c]pyrimidin-5-amine]	3.93	0.47	
CS(=O)(=O)c1ncn2c(NCc3c(F)ccc4c3CCO4)ncc(-c3ccc(C4CC4)nc3)c12 [compound 111, 8-(6-cyclopropylpyridin-3-yl)-N-((5-fluoro-2,3-dihydrobenzofuran-4-yl)methyl)-1-(methylsulfonyl)imidazo[1,5-c]pyrimidin-5-amine]	1.42	0.34	
CS(=O)(=O)c1ccc(-c2cnc(NCc3c(F)ccc4c3CCO4)n3cnc(C(F)(F)F)c23)cc1 [compound 112, N-((5-fluoro-2,3-dihydrobenzofuran-4-yl)methyl)-8-(4-(methylsulfonyl)phenyl)-1-(trifluoromethyl)imidazo[1,5-c]pyrimidin-5-amine]		0.83	20.3
Fc1ccc2c(c1CNc1ncc(-c3ccc(C(F)(F)F)cc3)c3c(C(F)(F)F)ncn13)CCO2 [compound 113, N-((5-fluoro-2,3-dihydrobenzofuran-4-yl)methyl)-1-(trifluoromethyl)-8-(4-(trifluoromethyl)phenyl)imidazo[1,5-c]pyrimidin-5-amine]		0.98	> 100
Fc1ccc(-c2cnc(NCc3c(F)ccc4c3CCO4)n3cnc(C(F)(F)F)c23)cc1 [compound 114, N-((5-fluoro-2,3-dihydrobenzofuran-4-yl)methyl)-8-(4-fluorophenyl)-1-(trifluoromethyl)imidazo[1,5-c]pyrimidin-5-amine]		1.48	> 100

The next lines start with the values.

IC50 [1, 3] [nM]	IC50 [2] [nM]	IC50 [1, 4] [nM]	Structure (SMILES)
	2.35	50.1	Cc1ccc(-c2cnc(NCc3c(F)ccc4c3CCO4)n3cnc(C(F)(F)F)c23)c(C)n1 [compound 115, 8-(2,6-dimethylpyridin-3-yl)-N-((5-fluoro-2,3-dihydrobenzofuran-4-yl)methyl)-1-(trifluoromethyl)imidazo[1,5-c]pyrimidin-5-amine]
	1.98	> 100	Fc1ccc2c(c1CNc1ncc(-c3ccc(C(F)(F)F)nc3)c3c(C(F)(F)F)ncn13)CCO2 [compound 116, N-((5-fluoro-2,3-dihydrobenzofuran-4-yl)methyl)-1-(trifluoromethyl)-8-(6-(trifluoromethyl)pyridin-3-yl)imidazo[1,5-c]pyrimidin-5-amine]
	0.19	19.5	CP(C)(=O)c1ncn2c(NCc3c(F)ccc4c3CCO4)ncc(-c3ccc(C(F)F)nc3)c12 [compound 117, (8-(6-(difluoromethyl)pyridin-3-yl)-5-(((5-fluoro-2,3-dihydrobenzofuran-4-yl)methyl)amino)imidazo[1,5-c]pyrimidin-1-yl)dimethylphosphine oxide]
	0.27	28.4	CP(C)(=O)c1ncn2c(NCc3c(F)ccc4c3CCO4)ncc(-c3ccc(F)cc3)c12 [compound 118, (5-(((5-fluoro-2,3-dihydrobenzofuran-4-yl)methyl)amino)-8-(4-fluorophenyl)imidazo[1,5-c]pyrimidin-1-yl)dimethylphosphine oxide]
	0.2	27.9	CP(C)(=O)c1ncn2c(NCc3c(F)ccc4c3CCO4)ncc(-c3ccc(C(F)(F)F)nc3)c12 [compound 119, (5-(((5-fluoro-2,3-dihydrobenzofuran-4-yl)methyl)amino)-8-(6-(trifluoromethyl)pyridin-3-yl)imidazo[1,5-c]pyrimidin-1-yl)dimethylphosphine oxide]
